Measured values: patent US11566168B1, “Biocide blend for treating wellbores” (Halliburton Energy Services, Inc., priority 2021, dated 2023)

How the values were obtained:
[1] = system: acid producing bacteria (APB); experiment: Elevated temperature study of biocides, kill testing of APB; assay type: cell-based, indigenous acid producing bacteria; details: for biocidal effectiveness against APB (FIG. 1): biocide-dosed water at 93° C. for 1 week, then 5 days at 32° C. with bacteria
Method: (§1) To facilitate a better understanding of the various embodiments, the following examples are given. […] Kill testing was performed at 32° C. (89.6° F.) at various contact times as follows. Bacterial populations were augmented prior to testing by culturing indigenous acid producing bacteria (APB) and sulfate reducing bacteria (SRB) in sample waters before starting kill studies. Prior to testing, cultures of APB and SRB from water samples were grown in culture medium. APB were grown in anaerobic phenol red dextrose medium (PRD). SRB were grown in American Petroleum Institute (API) medium without iron. The total dissolved solids (TDS) of SRB and APB media were selected to simulate wellbore fluids for some of the testing. Immediately preceding biocide testing, cultures were harvested by centrifugation. Cell pellets from mature bacteria were resuspended in sample water. The sample water, augmented with bacteria, was dispensed into 60 mL glass bottles and the appropriate amount of biocide was added. At the stated contact time of either 4 hours or 24 hours, biocide samples were taken for quantification. A standard serial dilution method into culture media was used to test biocide efficacy. Controls were serial diluted to theoretical extinction, while biocide-dosed samples were carried through 6 ten-fold dilutions as represented on the Y-axis of the figures. APB were quantitated by serial dilution into PRD medium. SRB were quantified by serial dilution into modified Postgate's medium B (MBP). Culture media were incubated at 32° C. (89.6° F.) and checked periodically. A change from red to yellow indicated a positive APB bottle. Formation of a black precipitate indicated a positive SRB bottle.
(§2) Elevated temperature studies of the biocides as shown in FIGS. 1 and 2 were conducted by adding 2 times the final biocide test concentration to 100 mL of sample water. The biocide-dosed sample was placed at 93° C. (199.4° F.) for 1 week or 2 weeks, FIG. 1 and FIG. 2, respectively. Following exposure to the elevated temperature, the heat-exposed biocide-dosed material was combined with an equal amount of sample water augmented with APB or SRB bacteria. The sample was then incubated for 5 days at 32° C. (89.6° F.). Following incubation, the sample material was serial diluted into PRD and MPB media for APB and SRB quantitation as discussed above. The biocides for FIGS. 1 and 2 are formaldehyde-releasing biocides. Tris(hydroxymethyl)nitromethane (“THNM”) and 4,4-dimethyloxazolidine (“DMO”) were obtained from DuPont®. Triazine was 1,3,5-triazine that is widely available commercially. Paraformaldehyde and […] (ratio 3:2) (“MBO”) was obtained from Vink chemicals. The formaldehyde-releasing biocides were in a concentration of 100, 150, 500, or 1,000 parts per million (“ppm”).

[2] = Properties that a biocide or blend possesses (Table 1)
Source text: Some of the desirable properties can include maintaining biocidal activity in fluids having a high salinity or a high concentration of total dissolved solids, thermal stability, maintaining biocidal activity in the presence of ammonia or primary amines, quick kill, maintaining biocidal activity for extended periods of time—also known as persistence, and no interaction between the biocide and other additives having a negative charge (anions) within a treatment fluid.
The second property can be different. […] It is to be understood that unlike a triazine compound, glutaraldehyde is not a formaldehyde-releasing biocide.

[3] = system: sulfate reducing bacteria (SRB); experiment: Elevated temperature study of biocides, kill testing of SRB; assay type: cell-based, indigenous sulfate reducing bacteria; details: for biocidal effectiveness against SRB (FIG. 1): biocide-dosed water at 93° C. for 1 week, then 5 days at 32° C. with bacteria
Method: as §1, §2

[4] = at comparable or lower concentrations, 93° C. for 1 week
[5] = triazine at 100 ppm, 93° C. for 1 week

Molecule	performance compared with the other formaldehyde-releasing biocides, APB (FIG. 2) ([1]; 150 ppm, 93° C. for 2 weeks)	effectiveness compared with the other formaldehyde-releasing biocides, APB (FIG. 1) [1, 4]	biocidal effectiveness against APB (FIG. 1) [1]	effectiveness compared with MBO, APB (FIG. 1) [1, 5]	Activity in ammonia [2]	High salinity activity [2]	No interaction with anions [2]	Quick kill [2]	Thermal stability [2]	performance compared with the other formaldehyde-releasing biocides, SRB (FIG. 2) ([3]; 150 ppm, 93° C. for 2 weeks)	effectiveness compared with the other formaldehyde-releasing biocides, SRB (FIG. 1) [3, 4]	biocidal effectiveness against SRB (FIG. 1) [3]	effectiveness compared with MBO, SRB (FIG. 1) [3, 5]
1,3,5-triazine	performed better	as effective or more effective	effective	as effective as MBO at 1,000 ppm	Yes	Yes	Yes	No	Yes	performed better	as effective or more effective	very effective	as effective as MBO at 1,000 ppm
CC1(C)COCN1 [DMO, 4,4-dimethyloxazolidine, reference compound]			effective									not SRB	
O=CCCCC=O [Glutaraldehyde, glutaraldehyde, reference compound]					No	Yes	Yes	Yes	No				
